Starred links: 1 amine or outer side, 2 acyl side, 3 side chain; linkers in the order of their positions; H or OH if unused. Positions of bridges follow the written chain, without caps; N, C: chain ends. Non-standard residues stand in square brackets, D forms with d. Residues, ends and D or L forms follow the SMILES beside them. Bip(4'-COOH) = N[C@@H](Cc1ccc(-c2ccc(C(=O)O)cc2)cc1)C(=O)O; Bip(4'-NHAc) = CC(=O)Nc1ccc(-c2ccc(C[C@H](N)C(=O)O)cc2)cc1; Phe(3-CH2NH2) = O=C([C@H](Cc1cccc(CN[*:3])c1)N[*:1])[*:2]; Ala(morpholin-4-yl) = N[C@@H](CN1CCOCC1)C(=O)O; Bip = N[C@@H](Cc1ccc(-c2ccccc2)cc1)C(=O)O; Morpholine(3S-CO) = O=C(O)[C@@H]1COCCN1; Val(3-OH) = CC(C)(O)[C@H](N)C(=O)O; cisHyp = O=C(O)[C@@H]1C[C@H](O)CN1; 2Pal = N[C@@H](Cc1ccccn1)C(=O)O; 3Pal = N[C@@H](Cc1cccnc1)C(=O)O; Pip = O=C(O)[C@@H]1CCCCN1; Aze = O=C(O)[C@@H]1CCN1; Sar = CNCC(=O)O

Sequence of TNFα (P01375 77-233 limits assumed): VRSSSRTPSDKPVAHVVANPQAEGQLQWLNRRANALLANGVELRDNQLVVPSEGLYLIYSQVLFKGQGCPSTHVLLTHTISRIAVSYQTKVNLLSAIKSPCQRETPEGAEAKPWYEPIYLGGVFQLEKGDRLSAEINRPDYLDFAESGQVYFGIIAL

The assay addresses TNFα (Homo sapiens, UniProt P01375). Description: TNF-Induced HEK-Blue Assay. Type of assay: cell-based. The settings on record: HEK-Blue-CD40L cells, NF-kB-driven secreted alkaline phosphatase reporter; TNFα 0.5 ng/ml; 18 h; read-out: TNF induced HEK-Blue assay IC50 value.
For orientation: IC50 means the concentration at which inhibition is half-maximal. For the compound `CC(=O)Nc1ccc(-c2ccc(C[C@@H]3NC(=O)[C@H](Cc4ccc(-c5ccccc5)cc4)NC(=O)[C@H](CN4CCOCC4)NC(=O)CSC[C@@H](C(=O)N[C@@H](CCCCN)C(=O)O)NC(=O)[C@H](CC(C)C)NC(=O)[C@H](CCCNC(=N)N)NC(=O)[C@H](C(C)C)NC(=O)[C@@H]4CCCN4C(=O)[C@H](C(C)C)NC(=O)[C@@H](CCCNC(=N)N)NC(=O)[C@H](CC(=O)O)NC(=O)[C@@H]4CCCN4C(=O)CN(C)C3=O)cc2)cc1` [Example 169] ({CH2CO}-[Ala(morpholin-4-yl)][Bip][Bip(4'-NHAc)][Sar]PD[dR]VPVRLCK-OH; thioether N-13), the IC50 was < 0.05 µM.
In the case of `CC(=O)Nc1ccc(-c2ccc(C[C@@H]3NC(=O)[C@H](Cc4ccc(-c5ccccc5)cc4)NC(=O)[C@H](CN4CCOCC4)NC(=O)CSC[C@@H](C(=O)NCC(N)=O)NC(=O)[C@H](CC(C)C)NC(=O)[C@H](Cc4ccc(O)cc4)NC(=O)[C@H](C(C)C)NC(=O)[C@@H]4CCN4C(=O)[C@H](C(C)C)NC(=O)[C@@H](CCCNC(=N)N)NC(=O)[C@H](CC(=O)O)NC(=O)[C@H](Cc4ccccn4)NC(=O)CN(C)C3=O)cc2)cc1` [Example 170] ({CH2CO}-[Ala(morpholin-4-yl)][Bip][Bip(4'-NHAc)][Sar][2Pal]D[dR]V[Aze]VYLCG-NH2; thioether N-13), the IC50 is < 0.05 µM.
`CC(=O)Nc1ccc(-c2ccc(C[C@@H]3NC(=O)[C@H](Cc4ccc(-c5ccccc5)cc4)NC(=O)[C@H](CN4CCOCC4)NC(=O)CSC[C@@H](C(=O)NCC(N)=O)NC(=O)[C@H](CC(C)C)NC(=O)[C@H](Cc4cccc(CN)c4)NC(=O)[C@H](C(C)C)NC(=O)[C@@H]4CCCN4C(=O)[C@H](C(C)C)NC(=O)[C@@H](CCCNC(=N)N)NC(=O)[C@H](CC(=O)O)NC(=O)[C@H](Cc4ccccn4)NC(=O)CN(C)C3=O)cc2)cc1` [Example 171] ({CH2CO}-[Ala(morpholin-4-yl)][Bip][Bip(4'-NHAc)][Sar][2Pal]D[dR]VPV[Phe(3-CH2NH2)]LCG-NH2; thioether N-13): the IC50 was < 0.05 µM.
For the compound `CC(=O)Nc1ccc(-c2ccc(C[C@@H]3NC(=O)[C@H](Cc4ccc(-c5ccccc5)cc4)NC(=O)[C@H](CN4CCOCC4)NC(=O)CSC[C@@H](C(=O)NCC(N)=O)NC(=O)[C@H](CC(C)C)NC(=O)[C@H](Cc4ccccn4)NC(=O)[C@H](C(C)C)NC(=O)[C@@H]4CCCN4C(=O)[C@H](C(C)C)NC(=O)[C@@H](CCCNC(=N)N)NC(=O)[C@H](CC(=O)O)NC(=O)[C@H](Cc4ccccn4)NC(=O)CN(C)C3=O)cc2)cc1` [Example 172] ({CH2CO}-[Ala(morpholin-4-yl)][Bip][Bip(4'-NHAc)][Sar][2Pal]D[dR]VPV[2Pal]LCG-NH2; thioether N-13), the IC50 is < 0.05 µM.
As for `CC(=O)Nc1ccc(-c2ccc(C[C@@H]3NC(=O)[C@H](Cc4ccc(-c5ccccc5)cc4)NC(=O)[C@H](CN4CCOCC4)NC(=O)CSC[C@@H](C(=O)NCC(N)=O)NC(=O)[C@H](CC(C)C)NC(=O)[C@H](Cc4ccc(O)cc4)NC(=O)[C@H](C(C)C)NC(=O)[C@@H]4CCCN4C(=O)[C@H](CC(N)=O)NC(=O)[C@@H](CCCNC(=N)N)NC(=O)[C@H](CC(=O)O)NC(=O)[C@H](Cc4ccccn4)NC(=O)CN(C)C3=O)cc2)cc1` [Example 173] ({CH2CO}-[Ala(morpholin-4-yl)][Bip][Bip(4'-NHAc)][Sar][2Pal]D[dR]NPVYLCG-NH2; thioether N-13), the IC50 lay in the range of 0.05 to 0.2 µM.
With `CC(=O)Nc1ccc(-c2ccc(C[C@@H]3NC(=O)[C@H](Cc4ccc(-c5ccccc5)cc4)NC(=O)[C@H](CN4CCOCC4)NC(=O)CSC[C@@H](C(=O)NCC(N)=O)NC(=O)[C@H](CC(C)C)NC(=O)[C@H](Cc4ccccc4)NC(=O)[C@H](C(C)C)NC(=O)[C@@H]4CCCN4C(=O)[C@H](C(C)C)NC(=O)[C@@H](CCCNC(=N)N)NC(=O)[C@H](CC(=O)O)NC(=O)[C@H](Cc4ccccc4)NC(=O)CN(C)C3=O)cc2)cc1` [Example 174] ({CH2CO}-[Ala(morpholin-4-yl)][Bip][Bip(4'-NHAc)][Sar]FD[dR]VPVFLCG-NH2; thioether N-13), the IC50 fell in the range of 0.05 to 0.2 µM.
The value for `CC(=O)Nc1ccc(-c2ccc(C[C@@H]3NC(=O)[C@H](Cc4ccc(-c5ccccc5)cc4)NC(=O)[C@H](C(C)(C)O)NC(=O)CSC[C@@H](C(=O)NCC(N)=O)NC(=O)[C@H](CC(C)C)NC(=O)[C@H](Cc4ccc(O)cc4)NC(=O)[C@H](C(C)C)NC(=O)[C@@H]4CCCN4C(=O)[C@H](C(C)C)NC(=O)[C@@H](CCCNC(=N)N)NC(=O)[C@H](CC(=O)O)NC(=O)[C@H](Cc4ccccn4)NC(=O)CN(C)C3=O)cc2)cc1` [Example 175] ({CH2CO}-[Val(3-OH)][Bip][Bip(4'-NHAc)][Sar][2Pal]D[dR]VPVYLCG-NH2; thioether N-13) was < 0.05 µM; that for `CC(=O)Nc1ccc(-c2ccc(C[C@@H]3NC(=O)[C@H](Cc4ccc(-c5ccccc5)cc4)NC(=O)[C@H](CN4CCOCC4)NC(=O)CSC[C@@H](C(=O)NCC(N)=O)NC(=O)[C@H](CC(C)C)NC(=O)[C@H](Cc4cccnc4)NC(=O)[C@H](C(C)C)NC(=O)[C@@H]4CCCN4C(=O)[C@H](C(C)C)NC(=O)[C@@H](CCCNC(=N)N)NC(=O)[C@H](CC(=O)O)NC(=O)[C@H](Cc4ccccn4)NC(=O)CN(C)C3=O)cc2)cc1` [Example 176] ({CH2CO}-[Ala(morpholin-4-yl)][Bip][Bip(4'-NHAc)][Sar][2Pal]D[dR]VPV[3Pal]LCG-NH2; thioether N-13) was < 0.05 µM.
Regarding `CC(=O)Nc1ccc(-c2ccc(C[C@@H]3NC(=O)[C@H](Cc4ccc(-c5ccccc5)cc4)NC(=O)[C@H](CN4CCOCC4)NC(=O)CSC[C@@H](C(=O)NCC(N)=O)NC(=O)[C@H](CC(C)C)NC(=O)[C@H](Cc4ccc(O)cc4)NC(=O)[C@H](C(C)C)NC(=O)[C@@H]4CCCN4C(=O)[C@H](Cc4ccc(O)cc4)NC(=O)[C@@H](CCCNC(=N)N)NC(=O)[C@H](CC(=O)O)NC(=O)[C@H](Cc4ccccn4)NC(=O)CN(C)C3=O)cc2)cc1` [Example 177] ({CH2CO}-[Ala(morpholin-4-yl)][Bip][Bip(4'-NHAc)][Sar][2Pal]D[dR]YPVYLCG-NH2; thioether N-13), the IC50 was 0.05 to 0.2 µM.
For the compound `CC(=O)Nc1ccc(-c2ccc(C[C@@H]3NC(=O)[C@H](Cc4ccc(-c5ccccc5)cc4)NC(=O)[C@H](C(C)(C)O)NC(=O)CSC[C@@H](C(=O)NCC(N)=O)NC(=O)[C@H](CC(C)C)NC(=O)[C@H](Cc4ccc(O)cc4)NC(=O)[C@H](C(C)C)NC(=O)[C@@H]4CCCN4C(=O)[C@H](Cc4ccc(O)cc4)NC(=O)[C@@H](CCCNC(=N)N)NC(=O)[C@H](CC(=O)O)NC(=O)[C@H](Cc4ccccn4)NC(=O)CN(C)C3=O)cc2)cc1` [Example 178] ({CH2CO}-[Val(3-OH)][Bip][Bip(4'-NHAc)][Sar][2Pal]D[dR]YPVYLCG-NH2; thioether N-13), the IC50 is < 0.05 µM.
Take `CC(=O)Nc1ccc(-c2ccc(C[C@@H]3NC(=O)[C@H](Cc4ccc(-c5ccccc5)cc4)NC(=O)[C@H](CN4CCOCC4)NC(=O)CSC[C@@H](C(=O)N[C@@H](CCCCN)C(=O)O)NC(=O)[C@H](CC(C)C)NC(=O)[C@H](Cc4ccc(O)cc4)NC(=O)[C@H](C(C)C)NC(=O)[C@@H]4CCCN4C(=O)[C@H](C(C)C)NC(=O)[C@@H](CCCNC(=N)N)NC(=O)[C@H](CC(=O)O)NC(=O)[C@H](Cc4ccccn4)NC(=O)CN(C)C3=O)cc2)cc1` [Example 179] ({CH2CO}-[Ala(morpholin-4-yl)][Bip][Bip(4'-NHAc)][Sar][2Pal]D[dR]VPVYLCK-OH; thioether N-13): the IC50 lay in the range of 0.05 to 0.2 µM.
On to `CC(=O)Nc1ccc(-c2ccc(C[C@@H]3NC(=O)[C@H](Cc4ccc(-c5ccccc5)cc4)NC(=O)[C@H](CN4CCOCC4)NC(=O)CSC[C@@H](C(=O)NCC(N)=O)NC(=O)[C@H](CC(C)C)NC(=O)[C@H](Cc4ccc(O)cc4)NC(=O)[C@H](C(C)C)NC(=O)[C@@H]4COCCN4C(=O)[C@H](C(C)C)NC(=O)[C@@H](CCCNC(=N)N)NC(=O)[C@H](CC(=O)O)NC(=O)[C@H](Cc4ccccn4)NC(=O)CN(C)C3=O)cc2)cc1` [Example 180] ({CH2CO}-[Ala(morpholin-4-yl)][Bip][Bip(4'-NHAc)][Sar][2Pal]D[dR]V[Morpholine(3S-CO)]VYLCG-NH2; thioether N-13), for which the IC50 was 0.05 to 0.2 µM.
Turning to `CC(=O)Nc1ccc(-c2ccc(C[C@@H]3NC(=O)[C@H](Cc4ccc(-c5ccc(C(=O)O)cc5)cc4)NC(=O)[C@H](CN4CCOCC4)NC(=O)CSC[C@@H](C(=O)NCC(N)=O)NC(=O)[C@H](CC(C)C)NC(=O)[C@H](Cc4cccc(CN)c4)NC(=O)[C@H](C(C)C)NC(=O)[C@@H]4CCN4C(=O)[C@H](C(C)C)NC(=O)[C@@H](CCCNC(=N)N)NC(=O)[C@H](CC(=O)O)NC(=O)[C@H](Cc4ccccn4)NC(=O)CN(C)C3=O)cc2)cc1` [Example 181] ({CH2CO}-[Ala(morpholin-4-yl)][Bip(4'-COOH)][Bip(4'-NHAc)][Sar][2Pal]D[dR]V[Aze]V[Phe(3-CH2NH2)]LCG-NH2; thioether N-13), the IC50 is < 0.05 µM.
Regarding `CC(=O)Nc1ccc(-c2ccc(C[C@@H]3NC(=O)[C@H](Cc4ccc(-c5ccccc5)cc4)NC(=O)[C@H](CN4CCOCC4)NC(=O)CSC[C@@H](C(=O)NCC(N)=O)NC(=O)[C@H](CC(C)C)NC(=O)[C@H](Cc4ccc(O)cc4)NC(=O)[C@H](C(C)C)NC(=O)[C@@H]4CCCN4C(=O)[C@H](C(C)C)NC(=O)[C@@H](CCCNC(=N)N)NC(=O)[C@H](CC(=O)O)NC(=O)[C@@H]4CCCCN4C(=O)CN(C)C3=O)cc2)cc1` [Example 182] ({CH2CO}-[Ala(morpholin-4-yl)][Bip][Bip(4'-NHAc)][Sar][Pip]D[dR]VPVYLCG-NH2; thioether N-13), the IC50 lay within 0.05 to 0.2 µM.
As to `CC(=O)Nc1ccc(-c2ccc(C[C@@H]3NC(=O)[C@H](Cc4ccc(-c5ccccc5)cc4)NC(=O)[C@H](CN4CCOCC4)NC(=O)CSC[C@@H](C(=O)NCC(N)=O)NC(=O)[C@H](CC(C)C)NC(=O)[C@H](Cc4ccc(O)cc4)NC(=O)[C@H](C(C)C)NC(=O)[C@@H]4CCCN4C(=O)[C@H](C(C)C)NC(=O)[C@@H](CCCNC(=N)N)NC(=O)[C@H](CC(=O)O)NC(=O)[C@@H]4C[C@H](O)CN4C(=O)CN(C)C3=O)cc2)cc1` [Example 183] ({CH2CO}-[Ala(morpholin-4-yl)][Bip][Bip(4'-NHAc)][Sar][cisHyp]D[dR]VPVYLCG-NH2; thioether N-13), the IC50 fell in the range of 0.05 to 0.2 µM.
